Reference: patent publication US11766470B2, “Manufacture, formulation and dosing of apraglutide” (VectivBio AG, priority 2020, dated 2023)
“And” between values parts separate entries of the source, which are not always exact repeats. Identical values can stand only once. Marks after values point to notes of the source that are not given here. Square brackets hold non-standard residues; d marks the D form. Peptide text beside a SMILES is read from it. ξ: configuration not given here. Ile(3ξ) = CCC(C)[C@H](N)C(=O)O; Thr(3ξ) = CC(O)[C@H](N)C(=O)O; Nle = CCCC[C@H](N)C(=O)O

Tests used:
[1] = test system: anti-apraglutide antibodies; assay: Anti-apraglutide antibodies ELISA in serum, Phase 2 SBS-IF trial (Example 5); format: in vivo, human
From the text: Blood samples for analysis of plasma concentration of apraglutide and fasting plasma L-citrulline, a marker of enterocyte mass, were collected at baseline, during first and second treatment injection, four days after first treatment injection and at the end of treatment.
A fully validated ELISA method was used for the detection of anti-apraglutide antibodies in serum, following a three-tiered assay approach. In the first tier, anti-apraglutide antibodies present in samples and controls bonded to apraglutide immobilized on a microtiter plate. The bound anti-apraglutide antibodies were then detected with protein A/G and protein L. A sample with a signal above the validated screening cut-point was considered potentially positive and was then tested in the second tier, the confirmatory assay. For this, samples were pre-treated with an excess of apraglutide prior to testing them in the assay described above. An inhibition of the signal equal to or greater than the validated confirmatory cut-point confirmed the presence of antibodies. Samples were then reported as anti-apraglutide antibody positive. Titers were then determined by serial dilution of all confirmed positive samples.

[2] = Plasma concentration of apraglutide (LC-MS/MS) in Phase 2 metabolic balance trial (Example 6); format: in vivo, human; conditions: 5 mg SC once weekly, SBS patients
Method: Blood samples for analysis of the plasma concentration of apraglutide and plasma concentration of fasting L-citrulline, a marker of enterocyte mass, were collected at baseline, during first and second injection (pre-dose and at sequential timepoints), four days after first injection and at the end of treatment. Blood sampling for apraglutide pharmacokinetics was also performed after the fourth and last injection covering 96 hours. […] Blood samples for anti-apraglutide antibodies were collected at baseline, at the end of treatment and at the 4-6 weeks follow-up visit. All eight patients tested negative for anti-apraglutide antibodies at baseline.
Apraglutide and L-citrulline were quantified using a validated LC-MS-based method. For a apraglutide, the analytical method used solid-phase extraction purification of the intact apraglutide molecule and its internal standard. The compounds were identified and quantified using reversed-phase HPLC with MS/MS detection using an AB Sciex API 5000 quadrupole mass spectrometer. For samples below the limit of quantification of 5.00 ng/mL, compounds were identified and quantified using reversed-phase UHPLC with MS/MS detection using an AB Sciex API 5500 quadrupole mass spectrometer. For L-citrulline, the analytical method used protein precipitation extraction of L-citrulline and its internal standard. The compounds were identified and quantified using Hilic HPLC with MS/MS detection using an AB Sciex API 5000 quadrupole mass spectrometer.

[3] = test system: patients with SBS-IF or SBS-II; assay: Safety assessments (adverse events) in Phase 2 metabolic balance trial (Example 6)
Method: Patients were treated with once weekly 5 mg apraglutide for four weeks. Apraglutide was provided as a freeze-dried powder for reconstitution in sterile water prior to injection, and treatments were administered as subcutaneous injections in the abdominal area. A 72-hour metabolic balance study was performed at baseline and at the end of the treatment period (starting one day after the fourth and last apraglutide injection). Each 72-hour metabolic balance study was performed during a five-day hospital admission. On the day of admission, patients were instructed to create a 24-hour drinking menu based on their habitual oral fluid intake. The drinking menu was to be followed during each balance study. On the second day of admission, just after the patients had urinated and emptied their stoma bags or defecated, the balance study was initiated. […] Daily PS and compliance to the predefined drinking menu was documented during admissions.
First, second and fourth apraglutide injections were performed at the hospital. Safety assessments included observation for injection site reactions, vital signs, blood samples, electrocardiogram (ECG), urinalysis and body weight. They were performed at baseline, during each injection of the trial drug, four days after first injection, at the end of treatment and 4-6 weeks after last dosing at the end of the trial, as shown in Table 20. Liver enzymes were measured prior to each drug administration.

[4] = Multiple dose study in healthy volunteers (Examples 4 and 7), pharmacokinetics of plasma apraglutide, non-compartmental analysis; conditions: for CL/F / AUC(0-t) / half-life / Cmax / Tmax / Vd/F: human, plasma
Method: 23 healthy adult volunteers received 6 weekly subcutaneous doses of apraglutide (1, 5, or 10 mg) or placebo and were followed for a further 6 weeks after the last dose. Blood collections were controlled for diet, lifestyle, and diurnal effects. […] PK data underwent non-compartmental analysis and PD data were analyzed by ANCOVA.
As with citrulline, a statistical steady-state analysis per dose level was performed for apraglutide using Helmert's approach.

## CCCC[C@H](NC(=O)[C@H](CCC(=O)O)NC(=O)[C@H](CC(=O)O)NC(=O)[C@H](CO)NC(=O)[C@H](Cc1ccccc1)NC(=O)[C@H](CO)NC(=O)CNC(=O)[C@H](CC(=O)O)NC(=O)CNC(=O)[C@@H](N)Cc1c[nH]cn1)C(=O)N[C@H](Cc1ccccc1)C(=O)N[C@H](C(=O)N[C@H](C(=O)N[C@@H](CC(C)C)C(=O)N[C@@H](CC(=O)O)C(=O)N[C@@H](CC(C)C)C(=O)N[C@@H](CC(C)C)C(=O)N[C@@H](C)C(=O)N[C@@H](C)C(=O)N[C@@H](CCCNC(=N)N)C(=O)N[C@@H](CC(=O)O)C(=O)N[C@@H](Cc1ccccc1)C(=O)N[C@H](C(=O)N[C@@H](CC(N)=O)C(=O)N[C@@H](Cc1c[nH]c2ccccc12)C(=O)N[C@@H](CC(C)C)C(=O)N[C@H](C(=O)N[C@@H](CCC(N)=O)C(=O)N[C@H](C(=O)N[C@@H](CCCCN)C(=O)N[C@H](C(=O)N[C@H](C(=O)N[C@@H](CC(=O)O)C(N)=O)C(C)O)C(C)CC)C(C)O)C(C)CC)C(C)CC)C(C)CC)C(C)O (stereo partly drawn) [apraglutide, L-histidyl-glycyl-L-aspartyl-glycyl-L-seryl-L-phenylalanyl-L-seryl-L-aspartyl-L-glutamyl-L-norleucyl-D-phenylalanyl-L-threonyl-Lisoleucyl-L-leucyl-L-aspartyl-L-leucyl-L-leucyl-L-alanyl-L-alanyl-L-arginyl-L-aspartyl-L-phenylalanyl-L-isoleucyl-L-asparaginyl-Ltryptophanyl-L-leucyl-L-isoleucyl-L-glutaminyl-L-threonyl-L-lysyl-L-isoleucyl-L-threonyl-Laspartic acid amide] (H-HGDGSFSDE[Nle][dF][Thr(3ξ)][Ile(3ξ)]LDLLAARDF[Ile(3ξ)]NWL[Ile(3ξ)]Q[Thr(3ξ)]K[Ile(3ξ)][Thr(3ξ)]D-NH2)
[1]; during the trial
  Patients who developed anti-apraglutide antibodies: Three
[1]; end of 5 mg treatment period
  Patients positive for anti-apraglutide antibodies: Two
[1]; end of 10 mg treatment period
  Patients positive for anti-apraglutide antibodies: one
[1]; in vivo
  Effects of anti-apraglutide antibodies on PK profile, pharmacodynamic response, adverse events: No effects of anti-apraglutide antibodies were detected
[2]
  Mean clearance: 0.9 L/h
[2]; human, plasma, read-out: Maximum mean plasma concentration
  Cmax: 118 ng/mL
[2]; human, plasma, read-out: Mean elimination half-life (converted)
  half-life: 27 h
[2]; human, plasma, read-out: Mean time to maximum concentration
  Tmax: 29.5 h
[3]; 5 mg
  Injection site reactions (transient), number of patients: One
  Patients with serious adverse events: two
  Serious adverse events assessed as related to the trial drug (abdominal pain): One
  Serious adverse events, number: three
[3]; 5 mg once weekly, four weeks, SBS-II and SBS-IF
  Safety and tolerability in words: safe and well tolerated
[3]; SBS-IF (N = 4), 5 mg
  Abdominal pain, number of patients: 2
  Any adverse event, number of patients: 4
  Flatulence, number of patients: 1
  Fluid retention, number of patients: 1
  Gastrointestinal stoma complication, number of patients: 2
  Gastrointestinal stoma output abnormal, number of patients: 1
  Gastrointestinal stoma output decreased, number of patients: 3
  Nausea, number of patients: 4
  Polyuria, number of patients: 1
  Stoma complication, number of patients: 3
  Weight increased, number of patients: 0
[3]; SBS-II (N = 4), 5 mg
  Abdominal pain, number of patients: 1
  Any adverse event, number of patients: 4
  Flatulence, number of patients: 3
  Fluid retention, number of patients: 1
  Gastrointestinal stoma complication, number of patients: 3
  Gastrointestinal stoma output abnormal, number of patients: 3
  Gastrointestinal stoma output decreased, number of patients: 3
  Nausea, number of patients: 1
  Polyuria, number of patients: 2
  Stoma complication, number of patients: 3
  Weight increased, number of patients: 2
[3]; Total (N = 8), 5 mg
  Abdominal pain, number of patients: 3
  Any adverse event, number of patients: 8
  Flatulence, number of patients: 4
  Fluid retention, number of patients: 2
  Gastrointestinal stoma complication, number of patients: 5
  Gastrointestinal stoma output abnormal, number of patients: 4
  Gastrointestinal stoma output decreased, number of patients: 6
  Nausea, number of patients: 5
  Polyuria, number of patients: 3
  Stoma complication, number of patients: 6
  Weight increased, number of patients: 2
[4]; 1 mg
  1st Ctrough, arithmetic mean ± SD: 0.000 ng/mL and 0.000 ± 0.000 ng/mL
  4th Ctrough, arithmetic mean ± SD: 0.873 ng/mL
[4]; 1 mg, (first dose)
  AUCtau, arithmetic mean ± SD: 35.214 ng·days/mL
  AUCtau/dose, Arithmetic mean ± standard deviation: 0.03037 ± 152.1 ng·days/mL/µg
[4]; 1 mg, dose #6
  AUCtau/dose, Arithmetic mean ± standard deviation: 0.05813 ± 23.1 ng·days/mL/µg
[4]; 5 mg
  4th Ctrough, arithmetic mean ± SD: 10.163 ng/mL
  5th Ctrough, arithmetic mean ± SD: 7.605 ng/mL
[4]; 5 mg, (first dose)
  AUCtau, arithmetic mean ± SD: 300.269 ng·days/mL
  AUCtau/dose, Arithmetic mean ± standard deviation: 0.05407 ± 47.1 ng·days/mL/µg
[4]; 5 mg, dose #6
  AUCtau/dose, Arithmetic mean ± standard deviation: 0.06595 ± 47.2 ng·days/mL/µg
[4]; 5 mg, dose #6 (N = 4)
  Lambda_Z, Arithmetic mean ± standard deviation: 0.2384 ± 36.6** 1/d
  Lambda_Z, arithmetic mean ± SD: 0.2508 ± 0.09871** 1/d
[4]; 10 mg
  2nd Ctrough, arithmetic mean ± SD: 18.460 ng/mL
  6th Ctrough, arithmetic mean ± SD: 13.710 ng/mL
[4]; 10 mg, (first dose)
  AUCtau, arithmetic mean ± SD: 476.937 ng·days/mL
  AUCtau/dose, Arithmetic mean ± standard deviation: 0.04291 ± 47.6 ng·days/mL/µg
[4]; 10 mg, Helmert's approach
  Steady-state contrast: mean Ctrough over week 3 to 6 against week 2: −3.616
[4]; 10 mg, dose #6
  Lambda_Z, arithmetic mean ± SD: 0.2463 ± 0.09975 day⁻¹
[4]; 10 mg, dose #6 (N = 5)
  AUCtau/dose, Arithmetic mean ± standard deviation: 0.05288 ± 52.4 ng·days/mL/µg
  Lambda_Z, Arithmetic mean ± standard deviation: 0.231 ± 41.3* 1/d
[4]; dose-normalized Cmax and AUCtau
  Kinetics over the 1 to 10 mg dose range, in words: follows linear kinetics
[4]; sc, 1 mg
  CL/F: 11.9 mL/min
[4]; sc, 1 mg, AUClast, Arithmetic mean ± standard deviation, dose #6
  AUC(0-t): 1310 ng·h/mL
[4]; sc, 1 mg, AUClast, arithmetic mean ± SD, dose #6
  AUC(0-t): 1360 ng·h/mL
[4]; sc, 1 mg, AUCtau, arithmetic mean ± SD, (first dose)
  AUC(0-t): 845 ng·h/mL
[4]; sc, 5 mg
  CL/F: 10.5 mL/min
[4]; sc, 5 mg, AUClast, Arithmetic mean ± standard deviation, dose #6
  AUC(0-t): 8500 ng·h/mL
[4]; sc, 5 mg, AUClast, arithmetic mean ± SD, dose #6
  AUC(0-t): 9170 ng·h/mL
[4]; sc, 5 mg, AUCtau, arithmetic mean ± SD, (first dose)
  AUC(0-t): 7210 ng·h/mL
[4]; sc, 10 mg
  CL/F: 13.1 mL/min
[4]; sc, 10 mg, AUClast, Arithmetic mean ± standard deviation, dose #6 (N = 5)
  AUC(0-t): 13800 ng·h/mL
[4]; sc, 10 mg, AUCtau, arithmetic mean ± SD, (first dose)
  AUC(0-t): 11400 ng·h/mL
[4]; sc, 10 mg, Half-life indicated by PK parameters, healthy volunteers, 6 weekly SC doses of 1, 5 or 10 mg
  half-life: 72 h
[4]; subcutaneous, 1 mg, arithmetic mean ± SD, (first dose)
  Cmax: 13.9 ± 11.2 ng/mL
[4]; subcutaneous, 1 mg, arithmetic mean ± SD, dose #6
  Cmax: 24.2 ± 9.22 ng/mL
[4]; subcutaneous, 1 mg, geometric mean (geometric coefficient of variation %), (first dose)
  Cmax: 12.3 ± 146 ng/mL
[4]; subcutaneous, 1 mg, tmax at dose 1 and 6, 1 mg
  Tmax: ~24 h
[4]; subcutaneous, 1 mg, tmax, median, (first dose)
  Tmax: 24 h
[4]; subcutaneous, 1 mg, tmax, median, dose #6
  Tmax: 21.6 h
[4]; subcutaneous, 5 mg
  Vd/F: 50.2 ± 61 L
[4]; subcutaneous, 5 mg, arithmetic mean ± SD, (first dose)
  Cmax: 94.1 ± 50.5 ng/mL
[4]; subcutaneous, 5 mg, arithmetic mean ± SD, dose #6
  Cmax: 125 ± 72.1 ng/mL
[4]; subcutaneous, 5 mg, geometric mean (geometric coefficient of variation %), (first dose)
  Cmax: 84.1 ± 55.1 ng/mL
[4]; subcutaneous, 5 mg, geometric mean (geometric coefficient of variation %), dose #6
  Cmax: 108 ± 64.6 ng/mL
[4]; subcutaneous, 5 mg, Half life, 5 mg, following dose #6
  half-life: 72.7 ± 23 h
[4]; subcutaneous, 5 mg, t1/2, lower section headed Arithmetic mean ± standard deviation, dose #6 (N = 4)
  half-life: 69.8 h
[4]; subcutaneous, 5 mg, tmax at dose 1 and 6, 5 mg
  Tmax: ~24 h
[4]; subcutaneous, 5 mg, tmax, median, (first dose)
  Tmax: 24 h
[4]; subcutaneous, 5 mg, tmax, median, dose #6
  Tmax: 24 h
[4]; subcutaneous, 10 mg
  Vd/F: 81.9 ± 98.6 L
[4]; subcutaneous, 10 mg, arithmetic mean ± SD, (first dose)
  Cmax: 137 ± 55 ng/mL
[4]; subcutaneous, 10 mg, arithmetic mean ± SD, dose #6
  Cmax: 182 ± 97.6 ng/mL
[4]; subcutaneous, 10 mg, geometric mean (geometric coefficient of variation %), (first dose)
  Cmax: 128 ± 39.9 ng/mL
[4]; subcutaneous, 10 mg, Half life, 10 mg, following dose #6
  half-life: 76.3 ± 27.6 h
[4]; subcutaneous, 10 mg, t1/2, lower section headed Arithmetic mean ± standard deviation, dose #6 (N = 5)
  half-life: 72 h
[4]; subcutaneous, 10 mg, tmax at dose 1 and 6, 10 mg
  Tmax: ~48 h
[4]; subcutaneous, 10 mg, tmax, median, (first dose)
  Tmax: 45.6 h
[4]; subcutaneous, 10 mg, tmax, median, dose #6
  Tmax: 45.6 h
